In patent US6096874A (Board of Regents, the University of Texas System, priority 1995, dated 2000):

What was measured:
[1] = Biodistribution in mammary tumor-bearing rats primed with estradiol; format: in vivo, rat; conditions: for tissue uptake at 1 h / tissue uptake at 3 h / tissue uptake at 6 h / tissue uptake at 24 h: rat, iv
Procedure: Female Fisher 344 rats (250-275 g) (Harlan, Inc., Indianapolis, Ind.) were inoculated with mammary tumor cells using the 13762 tumor cell line (s.c. 10^5 cells/rat). After 14 days, a tumor size of 1-2 cm was observed. For ^131 I-ITX studies, five groups of rats (N=3/group) were anesthetized with ketamine (10-15 mg/rat). […] In blocking studies, the fifth group of rats was given diethylstilbestrol (DES) (1.2 mg/rat) for 1 h, followed by 8.9 μCi of ^131 I-ITX; biodistribution was studied 6 h later. The tissues were collected at different time intervals. The tissues were weighted and counted for radioactivity. The percent of injected dose per gram of tissue weight was calculated.
[…]. The biodistribution studies were conducted at 1, 3, 6 and 24 h.

in vivo = experiment: in vivo; parameters: species or system rat; conditions: for tissue uptake at 1 h / tissue uptake at 3 h / tissue uptake at 6 h / tissue uptake at 24 h / Tissue uptake findings (in words): rat; for tissue uptake at 1 h / tissue uptake at 3 h / tissue uptake at 6 h / tissue uptake at 24 h: iv; for Tissue uptake findings (in words): in vivo
Procedure: In animal tissue distribution studies, each rate was given 8.9 μCi (0.15 ml) tracer intravenously. The tumor-bearing rats were killed at 1, 3, 6 and 24 h. […] The amount of DES given should occupy tumor estrogen receptor sites. The methods for inducing tumors in rats was as described by those of skill in the art (radiology). […]
Female Fisher 344 rats (250-275 g) (Harlan, Inc., Indianapolis, Ind.) were inoculated with mammary tumor cells using the 13762 tumor cell line (s.c. 10^5 cells/rat). After 14 days, a tumor size of 1-2 cm was observed. For ^131 I-ITX studies, five groups of rats (N=3/group) were anesthetized with ketamine (10-15 mg/rat). The trans ^131 I-ITX was given to four of the five groups (8.9 μCi/rat, i.v.) and biodistribution was studied at 1, 3, 6 and 24 h intervals. In blocking studies, the fifth group of rats was given diethylstilbestrol (DES) (1.2 mg/rat) for 1 h, followed by 8.9 μCi of ^131 I-ITX; biodistribution was studied 6 h later. The tissues were collected at different time intervals. The tissues were weighted and counted for radioactivity. The percent of injected dose per gram of tissue weight was calculated. […]

[2] = 24 h, listed as 131 I-ITX, 1440 min
[3] = tumor, 1 h, read-out: Tumor uptake
[4] = tumor, 3 h, read-out: Tumor uptake
[5] = tumor, 6 h, read-out: Tumor uptake
[6] = tumor, 24 h, read-out: Tumor uptake
[7] = 6 h, pretreated with DES (blocking)

- Tumor uptake [1, 2]: 0.397±0.1231 % injected dose/gram tissue
- Tumor uptake ([1]; 24 h, listed as 131 I-Iodo Analogue of Tamoxifen, 1440 min): 0.397 % injected dose/gram tissue
- tissue uptake at 1 h ([1]; blood, 10 uCi/rat, 1 h, read-out: Blood uptake): 0.155 ± 0.004 %ID/g
- tissue uptake at 3 h ([1]; blood, 10 uCi/rat, 3 h, read-out: Blood uptake): 0.12 ± 0.0137 %ID/g
- tissue uptake at 6 h ([1]; blood, 10 uCi/rat, 6 h, read-out: Blood uptake): 0.086 ± 0.0018 %ID/g
- tissue uptake at 24 h ([1]; blood, 10 uCi/rat, 24 h, read-out: Blood uptake): 0.036 ± 0.0001 %ID/g
- tissue uptake at 1 h ([1]; kidney, 10 uCi/rat, 1 h, read-out: Kidney uptake): 1.3 ± 0.0839 %ID/g
- tissue uptake at 3 h ([1]; kidney, 10 uCi/rat, 3 h, read-out: Kidney uptake): 1.49 ± 0.107 %ID/g
- tissue uptake at 6 h ([1]; kidney, 10 uCi/rat, 6 h, read-out: Kidney uptake): 1.39 ± 0.116 %ID/g
- tissue uptake at 24 h ([1]; kidney, 10 uCi/rat, 24 h, read-out: Kidney uptake): 0.573 %ID/g
- tissue uptake at 1 h ([1]; liver, 10 uCi/rat, 1 h, read-out: Liver uptake): 6.746 ± 0.0546 %ID/g
- tissue uptake at 3 h ([1]; liver, 10 uCi/rat, 3 h, read-out: Liver uptake): 6.73 ± 0.122 %ID/g
- tissue uptake at 6 h ([1]; liver, 10 uCi/rat, 6 h, read-out: Liver uptake): 4.67 ± 0.461 %ID/g
- tissue uptake at 24 h ([1]; liver, 10 uCi/rat, 24 h, read-out: Liver uptake): 2.71 %ID/g
- tissue uptake at 1 h ([1]; lung, 10 uCi/rat, 1 h, read-out: Lung uptake): 2.83 ± 0.14 %ID/g
- tissue uptake at 3 h ([1]; lung, 10 uCi/rat, 3 h, read-out: Lung uptake): 3.04 ± 0.411 %ID/g
- tissue uptake at 6 h ([1]; lung, 10 uCi/rat, 6 h, read-out: Lung uptake): 3.06 ± 0.458 %ID/g
- tissue uptake at 24 h ([1]; lung, 10 uCi/rat, 24 h, read-out: Lung uptake): 1.12 %ID/g
- tissue uptake at 1 h ([1]; muscle, 10 uCi/rat, 1 h, read-out: Muscle uptake): 0.214 ± 0.0176 %ID/g
- tissue uptake at 3 h ([1]; muscle, 10 uCi/rat, 3 h, read-out: Muscle uptake): 0.242 ± 0.187 %ID/g
- tissue uptake at 6 h ([1]; muscle, 10 uCi/rat, 6 h, read-out: Muscle uptake): 0.253 ± 0.0208 %ID/g
- tissue uptake at 24 h ([1]; muscle, 10 uCi/rat, 24 h, read-out: Muscle uptake): 0.114 %ID/g
- tissue uptake at 1 h [1, 3]: 0.3 ± 0.033 %ID/g
- tissue uptake at 3 h [1, 4]: 0.42 %ID/g
- tissue uptake at 6 h [1, 5]: 0.48 ± 0.107 %ID/g
- tissue uptake at 24 h [1, 6]: 0.4 ± 0.123 %ID/g
- tissue uptake at 1 h ([1]; uterus, 10 uCi/rat, 1 h, read-out: Uterus uptake): 0.334 ± 0.0485 %ID/g
- tissue uptake at 3 h ([1]; uterus, 10 uCi/rat, 3 h, read-out: Uterus uptake): 0.4 ± 0.132 %ID/g
- tissue uptake at 6 h ([1]; uterus, 10 uCi/rat, 6 h, read-out: Uterus uptake): 0.559 ± 0.0982 %ID/g
- tissue uptake at 24 h ([1]; uterus, 10 uCi/rat, 24 h, read-out: Uterus uptake): 0.335 %ID/g
- Tumor uptake (in vivo; 1 h, 60 min): 0.181 % injected dose/gram tissue
- Tumor uptake (in vivo; 3 h, 180 min): 0.229 % injected dose/gram tissue
- Blood uptake (in vivo; [7]): 0.072 % injected dose/gram tissue
- Kidney uptake (in vivo; [7]): 1.296 % injected dose/gram tissue
- Liver uptake (in vivo; [7]): 4.682 % injected dose/gram tissue
- Lung uptake (in vivo; [7]): 2.173 % injected dose/gram tissue
- Muscle uptake (in vivo; [7]): 0.172 % injected dose/gram tissue
- Spleen uptake (in vivo; [7]): 2.366 % injected dose/gram tissue
- Thyroid uptake (in vivo; [7]): 0.640 % injected dose/gram tissue
- Uterus uptake (in vivo; [7]): 0.325 % injected dose/gram tissue
- Tumor uptake (in vivo; 6 h, pretreated with DES (blocking), 360 min): 0.217 % injected dose/gram tissue
- Tumor uptake (in vivo; 6 h, pretreated with DES (blocking), listed as 131 I-TX, 360 min): 0.22±0.059 % injected dose/gram tissue
- Tumor uptake (in vivo; 6 h, pretreated with DES (blocking), listed as [^131 I]ITX, 360 min): 0.22±0.044 % injected dose/gram tissue
- Tumor uptake (in vivo; 6 h, 360 min): 0.261 % injected dose/gram tissue
- Tumor uptake (in vivo; 24 h, 1440 min): 0.267 % injected dose/gram tissue
- Tumor uptake (in vivo; [2]): 0.267±0.0160 % injected dose/gram tissue
- tissue uptake at 1 h (in vivo; blood, 1 h, read-out: Blood uptake): 0.158 %ID/g
- tissue uptake at 3 h (in vivo; blood, 3 h, read-out: Blood uptake): 0.121 %ID/g
- tissue uptake at 6 h (in vivo; blood, 6 h, read-out: Blood uptake): 0.124 %ID/g
- tissue uptake at 24 h (in vivo; blood, 24 h, read-out: Blood uptake): 0.001 %ID/g
- tissue uptake at 1 h (in vivo; kidney, 1 h, read-out: Kidney uptake): 1.88 %ID/g
- tissue uptake at 3 h (in vivo; kidney, 3 h, read-out: Kidney uptake): 2.37 %ID/g
- tissue uptake at 6 h (in vivo; kidney, 6 h, read-out: Kidney uptake): 1.36 %ID/g
- tissue uptake at 24 h (in vivo; kidney, 24 h, read-out: Kidney uptake): 0.381 %ID/g
- tissue uptake at 1 h (in vivo; liver, 1 h, read-out: Liver uptake): 5.6 %ID/g
- tissue uptake at 3 h (in vivo; liver, 3 h, read-out: Liver uptake): 6 %ID/g
- tissue uptake at 6 h (in vivo; liver, 6 h, read-out: Liver uptake): 4.63 %ID/g
- tissue uptake at 24 h (in vivo; liver, 24 h, read-out: Liver uptake): 2.47 %ID/g
- tissue uptake at 1 h (in vivo; lung, 1 h, read-out: Lung uptake): 3.95 %ID/g
- tissue uptake at 3 h (in vivo; lung, 3 h, read-out: Lung uptake): 3.71 %ID/g
- tissue uptake at 6 h (in vivo; lung, 6 h, read-out: Lung uptake): 2.84 %ID/g
- tissue uptake at 24 h (in vivo; lung, 24 h, read-out: Lung uptake): 0.512 %ID/g
- tissue uptake at 1 h (in vivo; muscle, 1 h, read-out: Muscle uptake): 0.201 %ID/g
- tissue uptake at 3 h (in vivo; muscle, 3 h, read-out: Muscle uptake): 0.253 %ID/g
- tissue uptake at 6 h (in vivo; muscle, 6 h, read-out: Muscle uptake): 0.204 %ID/g
- tissue uptake at 24 h (in vivo; muscle, 24 h, read-out: Muscle uptake): 0.005 %ID/g
- tissue uptake at 1 h (in vivo; spleen, 1 h, read-out: Spleen uptake): 3.38 %ID/g
- tissue uptake at 3 h (in vivo; spleen, 3 h, read-out: Spleen uptake): 3.31 %ID/g
- tissue uptake at 6 h (in vivo; spleen, 6 h, read-out: Spleen uptake): 2.33 %ID/g
- tissue uptake at 24 h (in vivo; spleen, 24 h, read-out: Spleen uptake): 0.688 %ID/g
- tissue uptake at 1 h (in vivo; thyroid, 1 h, read-out: Thyroid uptake): 0.393 %ID/g
- tissue uptake at 3 h (in vivo; thyroid, 3 h, read-out: Thyroid uptake): 0.748 %ID/g
- tissue uptake at 6 h (in vivo; thyroid, 6 h, read-out: Thyroid uptake): 0.776 %ID/g
- tissue uptake at 24 h (in vivo; thyroid, 24 h, read-out: Thyroid uptake): 0.493 %ID/g
- tissue uptake at 1 h (in vivo; [3]): 0.18 ± 0.062 %ID/g
- tissue uptake at 3 h (in vivo; [4]): 0.23 ± 0.152 %ID/g
- tissue uptake at 6 h (in vivo; [5]): 0.26 ± 0.166 %ID/g
- tissue uptake at 24 h (in vivo; [6]): 0.27 ± 0.016 %ID/g
- tissue uptake at 1 h (in vivo; uterus, 1 h, read-out: Uterus uptake): 0.414 %ID/g
- tissue uptake at 3 h (in vivo; uterus, 3 h, read-out: Uterus uptake): 0.546 %ID/g
- tissue uptake at 6 h (in vivo; uterus, 6 h, read-out: Uterus uptake): 0.408 %ID/g
- tissue uptake at 24 h (in vivo; uterus, 24 h, read-out: Uterus uptake): 0.151 %ID/g
SMILES: CCN(CC)CCOc1ccc(/C(=C(/CCC[131I])c2ccccc2)c2ccccc2)cc1 [^131 I-IODOTAMOXIFEN]
- Tumor uptake ([1]; 1 h, listed as 131 I-Iodo Analogue of Tamoxifen, 60 min): 0.303 ± 0.0333 % injected dose/gram tissue
- Tumor uptake ([1]; 3 h, listed as 131 I-Iodo Analogue of Tamoxifen, 180 min): 0.422 ± 0.0389 % injected dose/gram tissue
- Tumor uptake ([1]; 6 h, listed as 131 I-Iodo Analogue of Tamoxifen, 360 min): 0.479 ± 0.1065 % injected dose/gram tissue
- Tissue uptake findings (in words) (in vivo): both tumor and uterus uptake can be blocked
- Tissue uptake findings (in words) (in vivo; listed as 131 I-ITX): both tumor and uterus value were decreased in 6 h blocking group
